Laboratory results published in patent US20210186982A1, “METHODS AND COMPOSITIONS FOR TREATING MELANOMA” (UNIVERSITE NICE SOPHIA ANTIPOLIS, priority 2017, published 2021).
Entries after “also recorded” stand apart in the source; their conditions may differ.

Columns and labels:
451Iu = assay: MTS conversion assay, melanoma cell proliferation; assay type: cell-based; conditions: Homo sapiens, MET, BRAFV600E/p53*, resistance none, 48 h MTS, read-out: b-AP15 IC50
Protocol: (§1) Cell proliferation was measured by a MTS conversion assay using the CellTiter 96® Aqueous Non-Radioactive Cell Proliferation kit (Promega, Madison Wis.) according to the manufacturer instructions. Cells were seeded in 96-well plates (5×10^4 cells/well) and treated with different reagents for the indicated times and incubated at 37° C. with MTS reagent. The optical density of each sample at 490 nm was determined with a Multiskan FC plate reader (Thermo Fisher Scientific, Waltham, Mass. USA).

HMV2 = assay: MTS conversion assay, melanoma cell proliferation; assay type: cell-based; conditions: Homo sapiens, HMV-2, MET, NRAS*, resistance none, 48 h MTS, read-out: b-AP15 IC50
Protocol: as §1

MeWo = assay: MTS conversion assay, melanoma cell proliferation; assay type: cell-based; conditions: Homo sapiens, MET, p53*/CDKN2A*, resistance none, 48 h MTS, read-out: b-AP15 IC50
Protocol: as §1

Mel1617R = assay: MTS conversion assay, melanoma cell proliferation; assay type: cell-based; conditions: Homo sapiens, MET, BRAF*/p53*/?, resistance dabrafenib, 48 h MTS, read-out: b-AP15 IC50
Protocol: as §1

SBCL2 = assay: MTS conversion assay, melanoma cell proliferation; assay type: cell-based; conditions: Homo sapiens, RGP, NRASQ61K, resistance none, 48 h MTS, read-out: b-AP15 IC50
Protocol: as §1

WM793 = assay: MTS conversion assay, melanoma cell proliferation; assay type: cell-based; conditions: Homo sapiens, VGP, BRAFV600E/PTEN*, resistance none, 48 h MTS, read-out: b-AP15 IC50
Protocol: as §1

m229 = assay: MTS conversion assay, melanoma cell proliferation; assay type: cell-based; conditions: Homo sapiens, MET, BRAFV600E/PTEN*, resistance none, 48 h MTS, read-out: b-AP15 IC50
Protocol: as §1

m249R = assay: MTS conversion assay, melanoma cell proliferation; assay type: cell-based; conditions: Homo sapiens, MET, BRAFV600E/PTEN*/NRAS*, resistance vemurafenib, 48 h MTS, read-out: b-AP15 IC50
Protocol: as §1

m249 = assay: MTS conversion assay, melanoma cell proliferation; assay type: cell-based; conditions: Homo sapiens, MET, BRAFV600E/PTEN*, resistance none, 48 h MTS, read-out: b-AP15 IC50
Protocol: as §1

1205Iu = assay: MTS conversion assay, melanoma cell proliferation; assay type: cell-based, human
Protocol: as §1

451IuR = assay: MTS conversion assay, melanoma cell proliferation; assay type: cell-based, human
Protocol: as §1

501Mel = assay: MTS conversion assay, melanoma cell proliferation; assay type: cell-based, human
Protocol: as §1

A375 [1] = assay: MTS conversion assay, melanoma cell proliferation; assay type: cell-based, human
Protocol: as §1

m229R = assay: MTS conversion assay, melanoma cell proliferation; assay type: cell-based, human
Protocol: as §1

[2] = Annexin-V-FITC/7-AAD flow cytometry, cell viability; assay type: cell-based; conditions: human, A375 cells; solvent 87%
Protocol: Cell death was evaluated by flow cytometry following staining with Annexin-V-FITC and 7-AAD (eBiosciences) as previously described 24.

[3] = Body weight during xenograft study; assay type: in vivo; conditions: 10 mgkg-1 i.p. every 3 days; nude mice; course of the study
Protocol: All mouse experiments were carried out in accordance with the Institutional Animal Care and the local ethics committee. For human melanoma xenografts, 5-week-old female athymic (nu/nu) mice (Harlan) were subcutaneously injected with 1×106 451Lu-R BRAF inhibitor resistant melanoma cells engineered to express a luciferase reporter (451Lu-R Luc+ cells) in 100 μl of PBS. After 3 days, mice were injected every 3 days intraperitoneally with vehicle or 10 mgkg-1 b-AP15 in 90/1/9 mix of Labrafil/Tween 80/DMA. At the indicated time, mice were anesthetized and injected intraperitoneally with 50 mgkg-1 D-luciferin (Perkin Elmer) in PBS. Images were acquired using a Photon Imager (Biospace Lab) system and data analysed with the M3Vision software (Biospace Lab). Tumor growth was monitored and quantified using BLI. The total numbers of photons per second per steradian per square centimeter were recorded. For BLI plots, photon flux was calculated for each mouse by using a rectangular region of interest encompassing the thorax of the mouse in a prone position.

A375 cells = assay: ROS production (CM-H2DCFDA, flow cytometry); assay type: cell-based, human; conditions: 2 μM b-AP15 for 30 min
Protocol: ROS levels were measured using the redox-sensitive dye CM-H2DCFDA (Thermo Fischer Scientific). After treatment, cells were stained with 10 μM CM-H2DCFDA in PBS for 30 min at 37° C. Cells were washed with PBS and resuspended in PBS 5 mM EDTA/1% BSA. ROS production was analysed using a MACSQuant® Analyzer 10 cytometer (Miltenyi Biotech).

A375 [4] = assay: Real-time imaging growth curve (IncuCyte Zoom); assay type: cell-based, human; conditions: 2 μM; 3 days; compared with bortezomib and VLX1570
Protocol: FIG. 8. USP14 inhibition induces growth inhibition and cytotoxicity on melanoma cell lines. (A) Growth curve of A375 treated with 2 μM b-AP15, 2 μM VLX1570 or […] bortezomib (BTZ). Data were acquired in triplicate during 3 days using an IncuCyte Zoom. (B) and (C) Cytotoxic effects of USP14 inhibition on melanoma cells. A375 and Me1501 cells were treated with the indicated doses of b-AP15 or VLX1570, and stained with cytotox green reagent (100 nM). Cytotoxicity was monitored in triplicate for 72 h with an IncuCyte imaging system.

ER stress response genes = assay: qRT-PCR analysis of ER stress response genes; assay type: cell-based, human; conditions: 2 μM b-AP15, 6 h and 24 h; 12051u cells
Protocol: Total RNA was extracted from cell samples using Nucleospin RNAII kit (Macherey-Nagel) and following the manufacturer's instructions. Recovered RNA samples were quantified using NanoDrop spectrophotometer ND1000 (Thermo Fisher Scientific). Reverse transcription was performed on 1 μg of total RNA in a volume of 20 μL using High capacity cDNA Reverse Transcription kit (Applied Biosystems) according to the manufacturer's instructions. Quantitative PCR was performed on 20 ng cDNA samples, in sealed 96-well microtiter plates using the Platinum® SYBR Green qPCR Supermix-UDG w/ROX (Life Technologies) with the StepOnePlus System (Applied Biosystems). Relative mRNA levels were determined using the 2ΔΔCT method and ACTB and PPIA as housekeeping genes. Values are the mean of duplicates and are representative of two independent experiments.

[5] = 24 h, increasing doses 0.01 to 10 μM
[6] = 24 h, increasing doses 0.1 to 10 μM

## Cc1cc(C(=O)CN2CCCC2)c(C)n1-c1ccc(F)cc1 [b-AP15]
451Iu
  IC50: 900 nM
HMV2
  IC50: 1800 nM
MeWo
  IC50: 700 nM
Mel1617R
  IC50: 900 nM
SBCL2
  IC50: 400 nM
WM793
  IC50: 300 nM
m229
  IC50: 1200 nM
m249R
  IC50: 3000 nM
m249
  IC50: 2000 nM
1205Iu; [5]
  cell proliferation of 1205Lu cells (MTS): impaired cell proliferation in a dose-dependent manner
1205Iu; Homo sapiens, 1205Iu, MET, BRAFV600E/PTEN*, resistance none, 48 h MTS, read-out: b-AP15 IC50
  IC50: 400 nM
451IuR; [6]
  cell proliferation of BRAFi-resistant 4511uR cells (MTS): potently decreased cell proliferation
451IuR; Homo sapiens, 451IuR, MET, BRAFV600E/p53*/?, resistance dabrafenib, 48 h MTS, read-out: b-AP15 IC50
  IC50: 1300 nM
501Mel; [5]
  cell proliferation of 501me1 cells (MTS): impaired cell proliferation in a dose-dependent manner
501Mel; Homo sapiens, 501Mel, MET, BRAFV600E, resistance none, 48 h MTS, read-out: b-AP15 IC50
  IC50: 500 nM
A375 [1]; 24 h, increasing doses up to 10 μM
  cell proliferation of A375 cells (MTS): drastically decreased cell proliferation; also recorded: impaired cell proliferation in a dose-dependent manner
A375 [1]; Homo sapiens, A-375, A375, MET, BRAFV600E/CDKN2A*, resistance none, 48 h MTS, read-out: b-AP15 IC50
  IC50: 600 nM
m229R; [6]
  cell proliferation of BRAFi-resistant m229R cells (MTS): potently decreased cell proliferation
m229R; Homo sapiens, m229R, MET, BRAFV600E/PTEN*/RTK*, resistance vemurafenib, 48 h MTS, read-out: b-AP15 IC50
  IC50: 1100 nM
[2]
  viability: 52%
[3]
  tolerability / weight loss: no weight loss was observed
A375 cells
  ROS production: triggered a rapid burst of ROS
A375 [4]
  effect on cell proliferation, real-time imaging: rapid
ER stress response genes
  ER stress response (CHOP, BIP/GRP78, GADD34, ATF4, spliced XBP1): triggered a potent ER stress response
